Measured values published in US7786141B2 (Vertex Pharmaceuticals Incorporated, priority 2004, dated 2010).

Experiments:
M4 muscarinic receptor = molecular target: T1, M4 muscarinic receptor (Homo sapiens, UniProt P08173); assay: Functional mobilization of intracellular calcium (FLIPR) in M4-CHO cells; type: cell-based; conditions: for Emax: 100% efficacy is the maximum response obtained with the Carbachol control; for M4 Activity: M4 receptor, calcium mobilization (FLIPR); for EC50: CHO cells expressing M4, calcium mobilization
T1 construct: expressed in transfected cells; host or cells: CHO (M4-CHO)
T1 sequence (P08173 1-479): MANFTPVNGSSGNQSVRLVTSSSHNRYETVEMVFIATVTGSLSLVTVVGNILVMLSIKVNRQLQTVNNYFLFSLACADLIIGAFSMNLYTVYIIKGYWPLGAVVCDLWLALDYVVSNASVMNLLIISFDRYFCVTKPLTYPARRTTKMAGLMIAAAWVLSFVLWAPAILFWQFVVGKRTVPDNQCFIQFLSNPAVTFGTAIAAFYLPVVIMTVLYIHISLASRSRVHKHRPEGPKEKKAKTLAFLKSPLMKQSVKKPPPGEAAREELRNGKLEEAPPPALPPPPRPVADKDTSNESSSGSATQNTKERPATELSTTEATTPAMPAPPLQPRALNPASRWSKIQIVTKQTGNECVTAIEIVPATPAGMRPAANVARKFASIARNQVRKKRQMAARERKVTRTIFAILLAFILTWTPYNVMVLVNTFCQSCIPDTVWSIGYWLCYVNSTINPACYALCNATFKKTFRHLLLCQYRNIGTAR
Procedure, shortened: (§1)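 Two modes: direct compound addition for agonism, or 15 min compound pre-incubation (or co-application) before carbachol at EC80 for inhibition. Calcium signal from Fluo-3 AM or Calcium 3 dye in CHO cells, 1 mM probenecid, pH 7.4, read 60 sec at 488/540 nm; DMSO 0.5% final.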

M1 muscarinic receptor = molecular target: T2, M1 muscarinic receptor (Homo sapiens, UniProt P11229); assay: Functional mobilization of intracellular calcium (FLIPR) in M1-CHO cells; type: cell-based; conditions: for Emax: 100% efficacy is the maximum response obtained with the Carbachol control; for M1 Activity: M1 receptor, calcium mobilization (FLIPR); for EC50: CHO cells expressing M1, calcium mobilization
T2 construct: expressed in transfected cells; host or cells: CHO (M1-CHO)
T2 sequence (P11229 1-460): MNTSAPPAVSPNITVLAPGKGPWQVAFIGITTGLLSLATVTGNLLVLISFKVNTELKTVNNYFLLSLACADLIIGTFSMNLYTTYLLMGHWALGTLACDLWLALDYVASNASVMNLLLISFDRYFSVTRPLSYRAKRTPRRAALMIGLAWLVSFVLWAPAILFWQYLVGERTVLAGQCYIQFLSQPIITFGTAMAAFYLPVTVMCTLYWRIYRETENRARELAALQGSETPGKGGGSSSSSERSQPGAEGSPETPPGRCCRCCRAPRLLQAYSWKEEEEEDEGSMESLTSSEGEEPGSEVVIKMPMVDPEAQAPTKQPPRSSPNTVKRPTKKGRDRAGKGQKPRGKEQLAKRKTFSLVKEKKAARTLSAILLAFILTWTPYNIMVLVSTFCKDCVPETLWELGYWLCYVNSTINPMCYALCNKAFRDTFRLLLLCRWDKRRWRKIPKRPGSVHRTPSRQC
Procedure, shortened: as §1

Compound	Emax (M4 muscarinic receptor; Table 4)	M4 Activity (M4 muscarinic receptor; Table 4)	Emax (M1 muscarinic receptor; Table 4)	M1 Activity (M1 muscarinic receptor; Table 4)	Emax (M4 muscarinic receptor; Table 5)	EC50 (M4 muscarinic receptor; Table 5)	Emax (M1 muscarinic receptor; Table 5)	EC50 (M1 muscarinic receptor; Table 5)
CCCC(=O)N[C@H]1CC2(CCN(C[C@@H]3C[C@H]4C=CC3C4)CC2)c2ccccc21 [compound 1016]	25 to 100%	xxx (activity was measured to be less than 2.0 μM)	25 to 100%	xxx (activity was measured to be less than 2.0 μM)	–	–	–	–
CCCC(=O)N[C@H]1CC2(CCN([C@@H]3CC4CC[C@@H]3C4)CC2)c2ccccc21 [compound 1017]	25 to 100%	xxx (activity was measured to be less than 2.0 μM)	25 to 100%	x (activity was measured to be greater than 5.0 μM)	–	–	–	–
CC(=O)N1CC2(CCN(C3CCN(c4nccs4)CC3)CC2)c2cc(F)ccc21 [compound 1019]	–	–	–	–	25 to 100%	< 2 µM	25 to 100%	< 2 µM
CC(=O)N1CC2(CCN(C3CCC4(CC3)CC(C)=NO4)CC2)c2cc(F)ccc21 (stereo not shown) [compound 1020]	–	–	–	–	< 25%	2 to 10 µM	25 to 100%	2 to 10 µM
CN(C)C(=O)N1CC2(CCN(C3CCN(c4ccccc4F)CC3)CC2)c2cc(F)ccc21 [compound 1024]	–	–	–	–	< 25%	2 to 10 µM	25 to 100%	2 to 10 µM
CN(C)C(=O)N1CC2(CCN(C3CCN(c4cccc(F)c4)CC3)CC2)c2cc(F)ccc21 [compound 1025]	–	–	–	–	25 to 100%	< 2 µM	25 to 100%	2 to 10 µM
CN(C)C(=O)N1CC2(CCN(C3CCN(c4ccc(F)cc4)CC3)CC2)c2cc(F)ccc21 [compound 1026]	–	–	–	–	< 25%	< 2 µM	25 to 100%	2 to 10 µM
COc1ccccc1N1CCC(N2CCC3(CC2)CN(C(=O)N(C)C)c2ccc(F)cc23)CC1 [compound 1027]	–	–	–	–	25 to 100%	2 to 10 µM	25 to 100%	2 to 10 µM
COc1cccc(N2CCC(N3CCC4(CC3)CN(C(=O)N(C)C)c3ccc(F)cc34)CC2)c1 [compound 1028]	–	–	–	–	25 to 100%	< 2 µM	25 to 100%	2 to 10 µM
COc1ccc(N2CCC(N3CCC4(CC3)CN(C(=O)N(C)C)c3ccc(F)cc34)CC2)cc1 [compound 1029]	–	–	–	–	25 to 100%	2 to 10 µM	25 to 100%	2 to 10 µM
COc1ccc(F)cc1N1CCC(N2CCC3(CC2)CN(C(=O)N(C)C)c2ccc(F)cc23)CC1 [compound 1030]	–	–	–	–	25 to 100%	2 to 10 µM	25 to 100%	2 to 10 µM
CN(C)C(=O)N1CC2(CCN(C3CCN(c4cnccn4)CC3)CC2)c2cc(F)ccc21 [compound 1031]	–	–	–	–	25 to 100%	< 2 µM	25 to 100%	< 2 µM
CN(C)C(=O)N1CC2(CCN(C3CCN(c4ncccn4)CC3)CC2)c2cc(F)ccc21 [compound 1032]	–	–	–	–	25 to 100%	< 2 µM	25 to 100%	2 to 10 µM
CN(C)C(=O)N1CC2(CCN(C3CCN(c4cncnc4)CC3)CC2)c2cc(F)ccc21 [compound 1033]	–	–	–	–	25 to 100%	< 2 µM	25 to 100%	2 to 10 µM
CN(C)C(=O)N1CC2(CCN(C3CCN(c4nccs4)CC3)CC2)c2cc(F)ccc21 [compound 1034]	–	–	–	–	25 to 100%	< 2 µM	25 to 100%	< 2 µM
CN(C)C(=O)N1CC2(CCN(C[C@H]3CCN(c4cnccn4)C3)CC2)c2cc(F)ccc21 [compound 1035]	–	–	–	–	25 to 100%	< 2 µM	> 100%	< 2 µM
CN(C)C(=O)N1CC2(CCN(C[C@@H]3CCN(c4cnccn4)C3)CC2)c2cc(F)ccc21 [compound 1036]	–	–	–	–	25 to 100%	< 2 µM	25 to 100%	< 2 µM
CN(C)C(=O)N1CC2(CCN(C[C@H]3CCN(c4nccs4)C3)CC2)c2cc(F)ccc21 [compound 1037]	–	–	–	–	25 to 100%	< 2 µM	25 to 100%	2 to 10 µM
CN(C)C(=O)N1CC2(CCN(C[C@@H]3CCN(c4nccs4)C3)CC2)c2cc(F)ccc21 [compound 1038]	–	–	–	–	25 to 100%	< 2 µM	25 to 100%	2 to 10 µM
CN(C)C(=O)N1CC2(CCN(C3CCN(c4ccccn4)CC3)CC2)c2cc(F)ccc21 [compound 1039]	–	–	–	–	25 to 100%	< 2 µM	25 to 100%	2 to 10 µM
CN(C)C(=O)N1CC2(CCN(C3CCN(c4cccnc4)CC3)CC2)c2cc(F)ccc21 [compound 1040]	–	–	–	–	25 to 100%	< 2 µM	25 to 100%	< 2 µM
CN(C)C(=O)N1CC2(CCN(C3CCN(c4ccsc4)CC3)CC2)c2cc(F)ccc21 [compound 1041]	–	–	–	–	25 to 100%	2 to 10 µM	25 to 100%	2 to 10 µM
